Results from patent publication US11793746B2, “Intense skin hydration systems and methods” (priority 2020, dated 2023).

Legend:
[1] = system: PGE2 synthesis by 3T3 fibroblasts; test: Inhibition of PGE2 synthesis by 3T3 fibroblasts (ELISA); type: cell-based; conditions: for [PGE2]: 24 h
Source text: This Example establishes the anti-inflammatory potential of GC-100 by measuring the inhibition of PGE2 synthesis by 3T3 fibroblasts in cell culture.
The cells are nourished in a medium enriched with arachidonic acid which leads to increased secretion of eicosanoids into the medium.
The formation of prostaglandin PGE2 will be followed as a marker of eicosanoid synthesis, because it is a stable molecule secreted preferentially by 3T3 fibroblasts. The anti-inflammatory potential of an active ingredient may then be investigated by following the decrease in secretion of PGE2 in the culture medium.
Quantification of PGE2 will be achieved using an enzyme-linked immunosorbant assay (ELISA). In principle, the PGE2 expressed by the cells in culture medium will compete with enzyme-linked PGE2 for available antibody, which is a constant. The concentration of enzyme-linked PGE2 is also constant and quantified prior to testing. The enzyme linked to PGE2 prior to testing is acetylcholinesterase. Since the quantity of PGE2 expressed by 3T3 cells in culture will vary based on the concentration of GC-100 present, the amount of antibody available to bind to the enzyme-linked PGE2 versus that produced by the 3T3 cells assumes an inverse relationship that is dependent on Brownian motion. After eliminating unreacted PGE2 through washing, substrate is added that binds to the enzyme-PGE2-antibody complex to generate a yellow color that is strongly evident using spectrophotometer set at 412 nm. The amount of light transmitted through the test sample is directly proportional to the intensity of the color change and, consequently, to the concentration of PGE2-enzyme-antibody complex.
Create a mother solution (solution #1) containing complete DMEM, alcohol, and 2×10^5 3T3 fibroblasts for plating onto 25 cm^2 culture dishes. Using a compounding dilution technique, prepare the following solutions, using 5 mL of media per plate: • Solution #2: Solution #1 plus arachidonic acid (10^−3% P/V) • Solution #3: Solution #2 plus indomethacin (0,1,10^−3% P/V) • Solution #4: Solution #2 plus GC-100 0.5% • Solution #5: Solution #2 plus GC-100 1.0%
Incubate all preparations for 24 hours at 37° C. Recover the supernatant media, and if needed deep freeze it at −20° C. before quantification. Count the number of surviving cells using a coulter counter. Establish a calibration curve of the quantity of PGE2. Quantify the supernatant media using an enzyme-linked immunosorbant assay kit specific for PGE2 (Cayman), using a Dynotech microplate reader (MR500) with a filter set at 412 nm. Calculate the % inhibition of PGE2 synthesis. The results are shown in Table 4 and FIG. 10, which is a graph showing mean suppression of PGE2 concentration in test media comprising indomethacin or GC-100.

[2] = system: collagen I and III synthesis; test: [3H]-Proline incorporation as measure of collagen deposition; type: cell-based, human
Source text: This human skin substrate consists of neonatal foreskin fibroblasts that secrete a functionally active extracellular matrix grown on a medical-grade nylon mesh cocultured with human neonatal foreskin keratinocytes that differentiate into a multilayered epidermis.
Quantifying proline incorporation can be used to measure potential collagen deposition stimulated by a test substance. This concept is the foundation for the following experiments.

[3] = DMEM + AA + Indomethacin, column A
[4] = DMEM + AA + Indomethacin, column B
[5] = DMEM + AA + Indomethacin, column C

COc1ccc2c(c1)c(CC(=O)O)c(C)n2C(=O)c1ccc(Cl)cc1 [Indomethacin, indomethacin, reference compound]
% change of PGE2 vs DMEM + AA, MEAN ([1]; DMEM + AA + Indomethacin): −87.2%
% change of PGE2 vs DMEM + AA [1, 3]: −91%
[PGE2] [1, 3]: 0.27 pg/mL
% change of PGE2 vs DMEM + AA [1, 4]: −88%
[PGE2] [1, 4]: 0.35 pg/mL
% change of PGE2 vs DMEM + AA [1, 5]: −82.6%
[PGE2] [1, 5]: 0.50 pg/mL
suppression of PGE2 expression ([1]; indomethacin): 87%

O=C1O[C@H]([C@@H](O)CO)C(O)=C1O [ascorbic acid]
influence of ascorbic acid on proline incorporation ([2]; higher than optimal concentrations of ascorbic acid): suppress proline incorporation

ClCc1ccccc1 [benzyl chloride]
proline incorporation relative to control levels [2]: suppress proline incorporation below control levels
